Entries after “also recorded” stand apart in the source; their conditions may differ.
Key:
[1] = system: xanthurenic acid receptor(s); format: cell-based
[2] = system: rat; assay: Dopaminergic stereotypies after intracerebral injection; conditions: in vivo
Procedure: The product was injected by the intracerebroventricular route (i.c.v.) on the one hand, and in defined brain structures on the other hand: ventral tegmental area (A10), substantia nigra (A9) or nucleus accumbens. […] After disappearance of the stereotypies (30±15 minutes), reinjection of XA induced the same effects.
The following stereotypies are observed: licking, chewing, hyperactivity, exploring, standing, grooming, burrowing, stretching and sniffing.
These behaviors developed two minutes after the intracerebral injection and lasted for 30 to 40 minutes. One hour after such behaviors disappeared, they could be re-induced by another injection.

[3] = system: rat; assay: Reversal of XA-induced sedation in the open field test; conditions: in vivo
Procedure: Study of reversal of sedation induced by XA 100 mg/kg i.p

[4] = in vivo, ip; cited from earlier work
[5] = system: glutamate release in the frontal cortex; assay: Frontal extracellular glutamate release after retrodialysis of XA; conditions: rat, in vivo
Procedure: Amino acids contained in 15 μl of dialysate were separated according to their hydrophobicity by reverse phase high performance liquid chromatography (HPLC). […] The mobile phase was composed of a binary gradient between solution A: 0.05 M NaH2PO4 (Roth) 80% (pH 4.8 adjusted with 10 N NaOH), methanol 20% (Chromanorm, Prolabo); and solution B: 0.05 M NaH2PO4 20% (pH 4.8 ajusted with 10 N NaOH), methanol 80% and THF 5%. Glutamate and GABA were measured by fluorimetric detection at an excitation wavelength of 345 nm and an emission wavelength of 455 nm after derivatization. Chromatogram acquisition and quantitative data analysis were done with Millenium software (Waters).
The samples were derivatized by mixing 15 μl of dialysate with 15 μl of the following derivatization solution: 7.5 mg o-phthaldialdehyde (Sigma) in 4.5 ml of 0.1 M sodium tetraborate pH 9.3, 500 μl of methanol and 10 μl of 3-mercapto-propionic acid (Sigma). The elution rate was 0.8 ml/min at 35° C. in a series of steps: 90% A and 10% B at 0 min; 40% A and 60% B to 15 min (linear gradient); 40% A and 60% B to 19 min (isocratic gradient); 0% A and 100% B to 19.1 min; 0% A and 100% B to 24 min (isocratic gradient); 90% A and 10% B to 24.1 min (isocratic gradient) and 90% A and 10% B to 30 min. […]

[6] = system: rat; assay: Rotations in rats with unilateral 6-OHDA lesions; format: in vivo; conditions: rat, in vivo
[7] = rat, in vivo
Procedure: Methods: Rats were given an i.p. injection of XA 50 mg/kg and then sacrificed 30 minutes later by microwave irradiation. Brains were dissected and XA was assayed in 20 different regions of the brain.

[8] = system: rat; assay: Object recognition test; conditions: in vivo
Procedure: Ennaceur and Delacour, Behav. Brain Res. 1988, 31: 47–59.
Doses of 37.5 and 75 mg/kg i.p. were used.

[9] = system: rat; conditions: in vivo
[10] = system: rat; assay: Porsolt test (swimming test); conditions: in vivo
Procedure: The following doses were used: 50, 100, 150 and 200 mg/kg i.p.
This test has been validated with imipramine 30 mg/kg. The test described by Porsolt et al., Eur. J. Pharmacol. 1978, 47: 379–391, was used.

O=C(O)c1cc(O)c2cccc(O)c2n1 [XA, xanthurenic acid]
factor of increase of current amplitude at the peak of the transient current [1]: 5 factor
factor of increase of current amplitude, on average [1]: 5.0±1.7 factor
inversion potential, onset of the response [1]: −16.5 mV
inversion potential, second phase of the response [1]: −4.2 mV
mean outflux current [1]: considerably increased
stereotypies [2]: dose-related stereotypies were observed; also recorded: induced dose-dependent stereotypies
time to disappearance of the stereotypies [2]: 30 ± 15 min
Grooming [3]: 4 ± 2
Inner squares [3]: 19 ± 6
Outer squares [3]: 91 ± 17
Standing [3]: 37 ± 14
Total squares [3]: 110 ± 25
latency time to onset of epileptic seizures [4]: prolonged the latency time to onset of epileptic seizures
decrease in GLU release [5]: 37%
controlateral rotations induced by apomorphine [6]: did not antagonize; also recorded: did not modify the number of controlateral rotations
ipsilateral rotations induced by amphetamine [6]: had no effect
Brain regions where XA accumulated [7]: accumulated primarily in the frontal and prefrontal cortex (PFC), temporal and parietal cortex, amygdala, dopaminergic nuclei and in the striatum
object recognition score [8]: significant increase in the object recognition score
amplitude of the EEG waves [9]: reduction in the amplitude of the EEG waves
decrease in body temperature [9]: −0.5 to −2 °C
cumulative duration of immobility [10]: statistically significant decrease in the cumulative duration of immobility; also recorded: duration of immobility decreases with increasing doses

— patent publication US7122326B2 (Universite Louis Pasteur, priority 2001, dated 2006)
